Molecular target: RIPK1 (recombinant GST-RIPK1 kinase domain, residues 1-327) (Homo sapiens (Human), UniProt Q13546)
Test: RIPK1-ADP-Glo Enzymatic Assay
Type: biochemical
Details: ADP-Glo; 25 nM GST-RIPK1, 300 μM ATP; assay lower limit ~25 nM; read-out: RIPK1 V0 Ec50
Outline: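 ADP-Glo luminescence read after 150 min kinase reaction (300 μM ATP, 3 μM dephosphorylated MBP) using 25 nM Sf21-made GST-kinase domain (1-327), preincubated 30 min with compound. HEPES pH 7.3, 1% DMSO; ten-point 1:3 series from 100000 nM, EC50 via four-parameter sigmoidal regression.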

Sequence of RIPK1 (recombinant GST-RIPK1 kinase domain, residues 1-327) (Q13546 1-327): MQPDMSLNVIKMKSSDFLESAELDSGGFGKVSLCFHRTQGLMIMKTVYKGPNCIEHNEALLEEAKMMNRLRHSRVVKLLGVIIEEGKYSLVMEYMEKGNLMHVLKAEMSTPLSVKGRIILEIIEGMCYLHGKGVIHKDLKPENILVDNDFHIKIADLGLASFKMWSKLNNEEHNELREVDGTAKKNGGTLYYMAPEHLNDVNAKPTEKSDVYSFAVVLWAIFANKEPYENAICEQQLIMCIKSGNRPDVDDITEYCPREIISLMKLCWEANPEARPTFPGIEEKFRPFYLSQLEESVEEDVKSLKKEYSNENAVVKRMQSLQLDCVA

Row | EC50 [nM] | SMILES
1 | < 25 | O=C(c1ccn2ccccc12)N1CCC2(CC1)O[C@@H]1CC[C@@H](c3cc(F)cc(F)c3)N1C2=O [Example 5.68, (5′S,7a′R)-5′-(3,5-difluoro-phenyl)-1-(indolizine-1-carbonyl)tetrahydro-3′H-spiro[piperidine-4,2′-pyrrolo[2,1-b]oxazol]-3′-one]
2 | 26.1 | O=C(c1ccccc1)N1CCC2(CC1)S[C@@H]1CC[C@@H](c3ccccc3)N1C2=O [Example 1.23, (5′S,7a′R)-1-(benzenecarbonyl)-5′-phenyltetrahydro-3′H-spiro[piperidine-4,2′-pyrrolo[2,1-b] [1,3]thiazol]-3′-one]
3 | < 25 | O=C(c1sccc1Cl)N1CCC2(CC1)O[C@@H]1CC[C@@H](c3cc(F)cc(F)c3)N1C2=O [Example 5.31, (5′S,7a′R)-1-(3-chloro-thiophene-2-carbonyl)-5′-(3,5-difluorophenyl)tetra-hydro-3′H-spiro[piperi-dine-4,2′-pyrrolo[2,1-b]oxazol]-3′-one]
4 | < 25 | O=C(c1ccccc1)N1CCC2(O[C@@H]3CC[C@@H](c4ccccc4)N3C2=O)C(F)C1 (single isomer, unassigned) [Example 2.2, (3[R or S],4[S or R], 5′S,7a′R)-1-benzoyl-3-fluoro-5′-phenyltetrahydro-3′H-spiro[piperidine-4,2′-pyrrolo[2,1-b]oxazol]-3′-one]
5 | < 25 | O=C(c1cccc(N2CCCC2=O)c1)N1CCC2(CC1)O[C@@H]1CC[C@@H](c3cc(F)cc(F)c3)N1C2=O [Example 6.56, (5′S,7a′R)-5′-(3,5-difluorophenyl)-1-[3-(2-oxopyrrolidin-1-yl)benzene-1-carbon-yl]tetrahydro-3′H-spiro[piperidine-4,2′-pyrrolo[2,1-b][1,3]-oxazol]-3′-one]
6 | < 25 | O=C1N2[C@@H](CC[C@H]2c2ccccc2F)OC12CCN(c1ncc(Br)c3ncnn13)CC2 [Example 4.240, (5′S,7a′R)-1-(8-bromo [1,2,4]triazolo[1,5-c]pyrimidin-5-yl)-5′-(2-fluorophenyl)tetrahydro-3′H-spiro[piperidine-4,2′-pyrrolo[2,1-b] [1,3]oxazol]-3′-one]
7 | 26.9 | O=C1N2[C@@H](CC[C@H]2c2ccccc2)OC12CCN(c1cc(OC3CCC3)ccn1)CC2 [Example 11.20, (5′S,7a′R)-1-[4-(cyclobutyloxy)pyridin-2-yl]-5′-phenyltetrahydro-3′H-spiro[piperidine-4,2′-pyrrolo[2,1-b][1,3]oxazol]-3′-one]
8 | < 25 | O=C1N2[C@@H](CC[C@H]2c2ccccc2)OC12CCN(c1ncc(-c3ncco3)c(C(F)(F)F)n1)CC2 [Example 21.2, (5′S,7a′R)-1-[5-(1,3-oxazol-2-yl)-4-(trifluoromethyl)pyrimidin-2-yl]-5′-phenyltetrahydro-3′H-spiro[piperidine-4,2′-pyrrolo[2,1-b][1,3]oxazol]-3′-one]
9 | < 25 | O=C1N2[C@@H](CC[C@H]2c2ccccc2)OC12CCN(c1ccc(F)c3ncnn13)CC2 [Example 4.223, (5′S,7a′R)-1-(8-fluoro[1,2,4]triazolo[1,5-a]pyridin-5-yl)-5′-phenyltetrahydro-3′H-spiro[piperidine-4,2′-pyrrolo[2,1-b] [1,3]oxazol]-3′-one]
10 | < 25 | CC1CN(c2cc(C#N)ncn2)CCC12O[C@@H]1CC[C@@H](c3ccccc3)N1C2=O (stereo partly drawn) [Example 4.237, 6-[(4R,5′S,7a′R)-3-methyl-3′-oxo-5′-phenyltetrahydro-1H,3′H-spiro[piperidine-4,2′-pyrrolo[2,1-b] [1,3]oxazol]-1-yl]pyrimidine-4-carbonitrile]
11 | 24.6 | Cc1cnn(-c2cc(N3CCC4(CC3)O[C@@H]3CC[C@@H](c5ccccc5)N3C4=O)ncn2)c1 [Example 4.26, (5′S,7a′R)-1-[6-(4-methyl-1H-pyrazol-1-yl)pyrimidin-4-yl]-5′-phenyltetrahydro-3′H-spiro[piperidine-4,2′-pyrrolo[2,1-b] [1,3]oxazol]-3′-one]
12 | < 25 | O=C(c1ccoc1)N1CCC2(CC1)O[C@@H]1CC[C@@H](c3cc(F)cc(F)c3)N1C2=O [Example 5.36, (5′S,7a′R)-5′-(3,5-difluoro-phenyl)-1-(furan-3-carbon-yl)tetrahydro-3′H-spiro [piperidine-4,2′-pyrrolo-[2,1-b]oxazol]-3′-one]
13 | 103 | Cn1nccc1C(=O)N1CCC2(CC1)O[C@@H]1CC[C@@H](c3cc(F)cc(F)c3)N1C2=O [Example 5.38, (5′S,7a′R)-5′-(3,5-difluoro-phenyl)-1-(1-methyl-1H-pyrazole-5-carbonyl)tetra-hydro-3′H-spiro[piperi-dine-4,2′-pyrrolo[2,1-b]oxazol]-3′-one]
14 | 306 | Nc1nnc(N2CCC3(CC2)O[C@@H]2CC[C@@H](c4ccccc4)N2C3=O)s1 [Example 11.23, (5′S,7a′R)-1-(5-amino-1,3,4-thiadiazol-2-yl)-5′-phenyltetrahydro-3′H-spiro[piperidine-4,2′-pyrrolo[2,1-b][1,3]oxazol]-3′-one]
15 | 366 | O=C1N2[C@@H](CC[C@H]2c2ccccc2)OC12CCN(c1ncccc1C(F)F)CC2 [Example 11.24, (5′S,7a′R)-1-[3-(difluoromethyl)pyridin-2-yl]-5′-phenyltetrahydro-3′H-spiro[piperidine-4,2′-pyrrolo[2,1-b][1,3]oxazol]-3′-one]
16 | 188 | N#Cc1ccccc1C(=O)N1CCC2(CC1)O[C@@H]1CC[C@@H](c3cccc(F)c3)N1C2=O [Example 6.129, 2-[(5′S,7a′R)-5′-(3-fluorophenyl)-3′-oxotetrahydro-1H,3′H-spiro[piperidine-4,2′-pyrrolo[2,1-b][1,3]-oxazole]-1-carbonyl] benzonitrile]
17 | 43.1 | CC1CN(C(=O)c2ccccc2)CCC12O[C@@H]1CC[C@@H](c3cc(F)cc(F)c3)N1C2=O (single isomer, unassigned) [Example 2.7, (3[R or S],4[S or R], 5′S,7a′R)-1-benzoyl-5′-(3,5-difluorophenyl)-3-methyltetrahydro-3′H-spiro[piperidine-4,2′-pyrrolo[2,1-b]oxazol]-3′-one]
18 | < 25 | Cc1ccc(F)c(C(=O)N2CCC3(CC2)O[C@@H]2CC[C@@H](c4cccc(F)c4)N2C3=O)c1 [Example 6.133, (5′S,7a′R)-1-(2-fluoro-5-methylbenzene-1-carbonyl)-5′-(3-fluoro-phenyl)tetrahydro-3′H-spiro[piperidine-4,2′-pyrrolo[2,1-b] [1,3]oxazol]-3′-one]
19 | 136 | Cc1ccnc(C(=O)N2CCC3(CC2)O[C@@H]2CC[C@@H](c4cc(F)cc(F)c4)N2C3=O)n1 [Example 6.88, (5′S,7a′R)-5′-(3,5-difluorophenyl)-1-(4-methylpyrimidine-2-carbonyl)tetrahydro-3′H-spiro[piperidine-4,2′-pyrrolo[2,1-b] [1,3]oxazol]-3′-one]
20 | < 25 | O=C(c1ccccc1)N1CCC2(CC1)O[C@@H]1CC[C@@H](c3ccccc3)N1C2=O [Example 1.3, (5′S,7a′R)-1-(benzenecarbonyl)-5′-phenyltetrahydro-3′H-spiro[piperidine-4,2′-pyrrolo[2,1-b] [1,3]oxazol]-3′-one]
21 | 38.5 | COC(=O)c1ccc(N2CCC3(CC2)O[C@@H]2CC[C@@H](c4ccccc4)N2C3=O)nc1 [Example 4.202, methyl 6-[(5′S,7a′R)-3′-oxo-5′-phenyltetrahydro-1H,3′H-spiro[piperidine-4,2′-pyrrolo[2,1-b] [1,3]oxazol]-1-yl]pyridine-3-carboxylate]
22 | < 25 | O=C(c1cc(F)ccc1F)N1CCC2(O[C@@H]3CC[C@@H](c4ccccc4)N3C2=O)C(F)C1 (some centres unmarked) [Example 6.112]
23 | < 25 | O=C(c1ccccc1)N1CCC2(CC1)O[C@@H]1CC[C@@H](c3cccc(F)c3)N1C2=O [Example 1.5, (5′S,7a′R)-1-(benzenecarbonyl)-5′-(3-fluorophenyl)tetrahydro-3′H-spiro[piperidine-4,2′-pyrrolo[2,1-b] [1,3]oxazol]-3′-one]
24 | 208 | O=C(c1cnnn1-c1cccnc1)N1CCC2(CC1)O[C@@H]1CC[C@@H](c3cc(F)cc(F)c3)N1C2=O [Example 6.30, (5′S,7a′R)-5′-(3,5-difluorophenyl)-1-[1-(pyridin-3-yl)-1H-1,2,3-triazole-5-car-bonyl]tetrahydro-3′H-spiro[piperidine-4,2′-pyrrolo[2,1-b][1,3]oxazol]-3′-one]
25 | 89.7 | O=C(c1nc(C2CC2)no1)N1CCC2(CC1)O[C@@H]1CC[C@@H](c3cc(F)cc(F)c3)N1C2=O [Example 6.35]
26 | < 25 | CC1CN(C(=O)c2ccccc2)CCC12O[C@@H]1CC[C@@H](c3cc(F)cc(F)c3)N1C2=O (single isomer, unassigned) [Example 2.4, (3[R or S],4[R or S], 5′S,7a′R)-1-benzoyl-5′-(3,5-difluorophenyl)-3-methyltetrahydro-3′H-spiro[piperidine-4,2′-pyrrolo[2,1-b]oxazol]-3′-one]
27 | < 25 | N#Cc1ccnc(N2CCC3(CC2)O[C@@H]2CC[C@@H](c4cc(F)cc(F)c4)N2C3=O)n1 [Example 4.12, 2-[(5′S,7a′R)-5′-(3,5-difluorophenyl)-3′-oxotetrahydro-1H,3′H-spiro[piperidine-4,2′-pyrrolo[2,1-b] [1,3]oxazol]-1-yl]pyrimidine-4-carbonitrile]
28 | 41.7 | O=C(c1cc(F)ccc1F)N1CC2(C1)O[C@@H]1CC[C@@H](c3cc(F)cc(F)c3)N1C2=O [Example 1.20, (5′S,7a′R)-1-(2,5-difluorobenzoyl)-5′-(3,5-difluorophenyl)tetrahydro-3′H-spiro[azetidine-3,2′-pyrrolo[2,1-b]oxazol]-3′-one]
29 | 30.3 | CC(C)(C)OC(=O)/C=C/c1ccc(N2CCC3(CC2)O[C@@H]2CC[C@@H](c4ccccc4)N2C3=O)nc1 [Example 4.163, tert-butyl (2E)-3-{6-[(5′S,7a′R)-3′-oxo-5′-phenyltetrahydro-1H,3′H-spiro[piperidine-4,2′-pyrrolo[2,1-b] [1,3]oxazol]-1-yl]pyridin-3-yl}prop-2-enoate]

— patent publication US12180226B2, “Spirotricycle RIPK1 inhibitors and methods of uses thereof” (Merck Sharp & Dohme LLC, priority 2021, dated 2024)
